In patent publication US20250152559A1, “METHODS FOR TREATING MYC-AMPLIFIED CANCER” (The Governing Council of the University of Toronto, priority 2023, published 2025):
pIC50: −log10 of the molar value.

Legend:
D425 = experiment: PrestoBlue cell viability, 72-hour treatment, limiting dilution; type: cell-based; conditions: Homo sapiens, read-out: BAY2402234 IC50; D425, G3MB-MYC
Method: (§1) SU_MB002, NSC194, NSC197 and NSC201FT, MBT375 and MED411FHTC were maintained in Neurocult Complete (NCC) media (Stem Cell Technologies; catalogue #05751). D425 and D458 were maintained in Dulbecco's […] (DMEM) containing 10% fetal bovine serum (FBS). HD-MB03 were maintained in NCC containing 10% FBS. All cell lines were conditioned in NCC for a minimum of 48 hours before experimentation. SU_MB002 and HD-MB03 G3MB-MYC PDOX were obtained from collaborators as kind gifts and are frequently passaged in vivo. SU_MB002, a treatment-refractory group 3 MB acquired at autopsy was received from Dr. Yoon-Jae Cho. Dr. Till Milde provided HD-MB03, a treatment-naïve group 3 MBs. ICB1299 group 4 MB cells were obtained as a gift from Silvia Marino's laboratory^62. MBT375 was established in-house from a surgical specimen of group 4 MB, which was engrafted in the cerebellum of mice for serial propagation. Nanostring genotyping was used to confirm group 4 medulloblastoma identity. MED411FHTC PDOX were procured from Dr. Olson's brain tumor research lab. D425 and D458 were obtained from the ATCC. All cell lines were fingerprint verified by short tandem repeat (STR) profiling. NSC194, NSC197 and NSC201FT were derived in-house from donor fetal brain tissues^63.
(§2) For assessment of viability, cells were seeded into 96-well plates at a density of 1,000 cells per well. Viability was measured by adding PrestoBlue™ diluted 1:10 (ThermoFisher Scientific; Catalogue #A13261) followed by a 4-hour incubation. Relative fluorescence intensity was determined via background correction. To assess tumorsphere forming capacity, cells were seeded at a low density (200 cells per well) and incubated for 3-5 days. Tumorspheres were manually counted thereafter.

D458 = experiment: as above; type: cell-based; conditions: Homo sapiens, read-out: BAY2402234 IC50; D458, G3MB-MYC
Method: as §1, §2

HD-MB03 = experiment: as above; type: cell-based; conditions: Homo sapiens, read-out: BAY2402234 IC50; HD-MB03, G3MB-MYC
Method: as §1, §2

MED411-FHTC = experiment: as above; type: cell-based; conditions: Homo sapiens, read-out: BAY2402234 IC50, G3MB-MYC
Method: as §1, §2

[1] = test system: ERK1/2, c-Jun and 4EBP1 phosphorylation in SU_MB002 cells; experiment: Phosphokinome proteome profiler array and time-course Western blotting; type: cell-based, human
Method: To identify signaling changes accompanying DHODH inhibition in an unbiased fashion, changes in the phosphokinome of SU_MB002 cells were measured after treatment with BAY. […] Time-course Western blotting confirmed that ERK1/2 becomes phosphorylated within 24 h of BAY treatment, peaks at 48 h, and then decreases in expression at 72 h (FIG. 3I-J). […] These findings corroborated previous work that had implicated ERK1/2 silencing of mTORC1-mediated translation in activating apoptosis in cancer cells under severe metabolic stress^38. Indeed, both pharmacological inhibition or DHODH KO in G3MB-MYC induced both Go cell cycle arrest, determined via propidium iodide assessment of DNA content, (FIG. 3K, FIG. 8N) and apoptosis, determined via cleaved caspase 3 expression (FIG. 3I-J, FIG. 8M) and Annexin V staining (FIG. 3L, FIG. 8O). Such findings were also consistent with the enrichment of the hallmark apoptosis gene set in DHODH KO SU_MB002 cells (FIG. 3G). […] Pyrimidine starvation induces a metabolic stress response, which activates ERK1/2-mediated signaling, leading to suppression of mTORC1 activity, and initiation of apoptosis.
Protein lysates were isolated from approximately 500,000-1,000,000 cells. Pellets were rinsed with PBS and then lysed in RIPA buffer containing HALT™ protease inhibitor cocktail (ThermoFisher). Protein concentrations were quantified using the Bradford Assay (BioRad). Protein size was resolved via SDS-PAGE and then transferred to PVDF for immunoblotting. Rabbit polyclonal anti-DHODH (Cell Signaling Technologies; catalogue #80981), rabbit monoclonal anti-EGR1 (Cell Signaling Technologies; catalogue #4145), rabbit polyclonal anti-phospho-ERK1/2 Thr202/Tyr204 (Cell Signaling Technologies; catalogue #9101), rabbit monoclonal anti-phospho-4E-BP1 Thr37/46 (Cell Signaling Technologies; catalogue #2855) were used at a 1:1000 dilution. Mouse monoclonal anti-GAPDH (Abcam; catalogue #ab8245) was used at a 1:5000 dilution. For development, horse-radish peroxidase-conjugated secondary anti-mouse (BioRad; catalogue #1706516) and anti-rabbit antibodies (BioRad; catalogue #1706515) were used with BioRad Clarity ECL reagents. Quantification was performed by analyzing mean pixel density of each band and then normalizing to GAPDH loading control. The proteome profiler array was obtained from R&D systems (catalogue ARY003C) and performed according to manufacturing guidelines, using 400 μg cellular lysate for each sample.

[2] = Pharmacokinetic analysis of BAY2402234 in plasma and brain by LC-MS; type: in vivo; conditions: healthy mice undergoing treatment
Method: In parallel to these experiments, subcutaneous flank xenografts were engrafted into two cohorts of mice, which were treated with the vehicle or R2. […] To investigate the pharmacokinetics of BAY in vivo, its concentration in plasma and brain tissues of healthy mice was directly quantified using an LC-MS approach. BAY was detected in both brains and plasma of mice undergoing treatment, however the plasma concentrations exceeded those of the brain by approximately 10-fold (FIG. 5H-I). To determine whether treatment with BAY affects de novo pyrimidine biosynthesis in vivo, changes in pyrimidine metabolism were measured in the brain in comparison to tumor tissues from the flank (FIG. 5J-K). Although BAY treatment impacted de novo pyrimidine metabolism in vivo in both brain and tumor tissues, with a similar pattern observed in vitro (FIG. 4A), the effect size was stronger in peripheral tumor tissue in comparison to brain tissue. Such findings further reflect the limited capacity for BAY to accumulate within the brain.
Standards and samples were extracted by the addition of organic solvent, containing the internal standard (IS), for protein precipitation. […] Brains were analyzed similarly, with 20 μL of sample transferred to 180 μL of IS solution prior to analysis via LC-MS.

[3] = SU_MB002, BAY-treated vs vehicle, 48 h
[4] = SU_MB002, time-course Western blotting

Structure (SMILES): CCn1c(CO)nn(-c2cc(O[C@@H](C)C(F)(F)F)c(C(=O)Nc3c(F)cccc3Cl)cc2F)c1=O [BAY2402234]
- pIC50 (D425): 9.31
- pIC50 (D458): 9.59
- pIC50 (HD-MB03): 9.61
- pIC50 (MED411-FHTC): 9.20
- phosphorylation of ERK1/2 (T202/Y204; T185/Y187) [1, 3]: Increased phosphorylation
- phosphorylation of c-Jun (S63) [1, 3]: Increased phosphorylation
- time of peak ERK1/2 phosphorylation [1, 4]: 48 h
- time until ERK1/2 becomes phosphorylated [1, 4]: ≤ 24 h
- phosphorylation of 4EBP1 ([1]; time-course BAY treatment): decreased in a time-dependent fashion
- plasma concentration relative to brain concentration [2]: approximately 10 fold
